Assay results from patent publication US11376264B2, “Use of bromodomain-containing protein 9 antagonists in combination with vitamin D receptor agonists in diabetes treatment” (Salk Institute for Biological Studies, priority 2017, dated 2022).
Entries after “also recorded” stand apart in the source; their conditions may differ.

Columns and labels:
VDR-PCAF interaction = assay: Immunoprecipitation of endogenous PCAF with HA-VDR in INS1 cells; assay type: cell-based, rat; details: INS1 cells expressing HA-VDR, 1 hr after treatment
Experimental: Immunoprecipitations were performed as described previously (He et al., 2010, Mol. Cell 38, 428-38). Briefly, cells are lysed using ice-cold lysis buffer (HEPES 20 mM pH8, EDTA 0.2 mM, NaCl 0.3 mM, NP40 0.5%, 15% glycerol) for 15 min, and after centrifuging the supernatant was collected. For HA- or Flag-tagged proteins, immunoprecipitations were performed using HA-magnetic beads (Pierce, P188836), or Flag-magnetic beads (Sigma, M8823) for 1.5 hr at 4° C. For other immunoprecipitations, primary antibodies were incubated with lysates for 2 hr followed by Protein A magnetic beads (Life Technologies, 10001D). After 3 washes with wash buffer (HEPES 10 mM pH8, EDTA 0.2 mM, NaCl 0.3 mM, NP40 0.1%, 15% glycerol), the beads were boiled with NuPage LDS sample buffer and the lysates were stored at −20° C.

INS1 cells = assay: H3K27Ac ChIP-seq enhancer landscape in IL1β-treated INS1 cells; assay type: cell-based, rat; details: 1 hour IL1β
From the text: The experimental procedure for ChIP was as previously described (Barish et al., 2010, Genes Dev 24:2760-5). Briefly, after fixation, nuclei from were isolated, lysed, and sheared with a Diagenode Bioruptor to yield DNA fragment sizes of 200-1,000 bp followed by immunoprecipitation.
The procedure was as previously described (Barish et al., 2010, Genes Dev 24:2760-5). Briefly, short DNA reads were aligned against the mouse mm9 or rat rn4 reference genome using the Illumina CASAVA v1.8.2. Reads were aligned using the Bowtie aligner, allowing up to two mismatches in the read. Only tags that map uniquely to the genome were considered for further analysis. Subsequent peak calling and motif analysis were conducted using HOMER, a software suite for ChIP-seq analysis. The methods for HOMER, described below, have been implemented and are available at http://homer.ucsd.edu. One tag from each unique position was considered to eliminate peaks resulting from clonal amplification of fragments during the ChIP-seq protocol. Peaks were identified by searching for clusters of tags within a sliding 200 bp window, requiring adjacent clusters to be at least 1 kb away from each other. The threshold for the number of tags that determine a valid peak was selected for an FDR <0.001, as empirically determined by repeating the peak finding procedure using randomized tag positions. […]

db/db (B6) mice = assay: db/db (B6) mouse T2D model treatment; assay type: in vivo; details: for fasted blood glucose levels: Cal 60 μg/kg, iBRD9 10 mg/kg i.p. 3 times a week, 9 weeks; for serum insulin levels: FIG. 10D, fasting / random fed
Experimental: The following mice strains were from Jackson: VDR KO (B6.129S4-Vdrtm1Mbd/J), B6 db (B6.BKS(D)-Leprdb/J), BKS db (BKS.Cg-Dock7m+/+ Leprdb/J), C57BL6/J. Animals were maintained in a specific pathogen-free animal facility on a 12-hr light-dark cycle at an ambient temperature of 23° C. Water and food were provided ad lib. All animal experiments used age-matched male mice. VDR KO and control littermate mice were maintained on a VDR KO rescue diet containing 21% calcium, 0.67% phosphorus, and 20% lactose supplemented with 4.4 U vitamin D per gram diet.
db/db (B6) mice were grouped based on glucose levels at the age of 5 weeks. Treatments were started from 6 weeks and animals were treated with vehicle (30% 2-Hydroxypropyl-β Cyclodextrin, Sigma, H-107) or drugs 3 times a week. […] For db/db (BKS) mice, treatment started from age of 10 weeks.
Intraperitoneal GTTs were performed on overnight fasted mice. Blood glucose values were assessed before and at 0, 15, 30, 60, and 120 min after i.p. administration of 0.5 g/kg of glucose. Serum insulin levels were assessed before and at 0, 15, and 60 min after the i.p. administration of glucose using a rat/mouse Insulin ELISA kit (Millipore). IP-ITT assays were performed on mice after a 6 hr fast with an injection of 2 U/kg of insulin (Humalin R, Eli Lilly).
ELISA were performed per manufacturer's instructions: mouse insulin (Millipore, EZRMI-13K), mouse proinsulin (Mercodia, NC9088881).

Compound: C=C1/C(=C\C=C2/CCC[C@]3(C)[C@@H]([C@H](C)/C=C/[C@@H](O)C4CC4)CC[C@@H]23)C[C@@H](O)C[C@@H]1O [Cal, calcipotriol]
- PCAF binding to VDR (VDR-PCAF interaction): increased
- reversal of IL1β-induced changes in H3K27 acetylation (INS1 cells): partially reverse the impact of IL1β
- fasted blood glucose levels (db/db (B6) mice): modest improvements; also recorded: mildly reduces
- serum insulin levels (db/db (B6) mice): higher fasting serum insulin levels
- cytokine and chemokine genes in islets (db/db (B6) mice; RNA-seq of islets): downregulated
- key transcription factors (Nkx6-1, Nr4a1) in islets (db/db (B6) mice; RNA-seq of islets): upregulation
- Cyp24A1 expression in islets and intestine (db/db (B6) mice; VDR target gene): marked induction
- glucose tolerance (IPGTT) (db/db (B6) mice; after 9 weeks treatment): improved glucose clearance; also recorded: better glucose tolerance
- Ins2 mRNA levels in islets (db/db (B6) mice; qPCR): trended upwards; also recorded: increased expression of Ins2
- expression of gluconeogenesis genes (Pepck, Fbp1, G6pase) in liver (db/db (B6) mice; qPCR): reduced expression; also recorded: repressed

Compound: CCn1cc(-c2cccc(C(F)(F)F)c2)c2sc(C(=N)NC3CCS(=O)(=O)CC3)cc2c1=O [iBRD9]
- PCAF binding to VDR (VDR-PCAF interaction): increased
- reversal of IL1β-induced changes in H3K27 acetylation (INS1 cells): partially reverse the impact of IL1β
- fasted blood glucose levels (db/db (B6) mice): modest improvements
- serum insulin levels (db/db (B6) mice): higher fasting serum insulin levels
